Experimental data reported in patent US20200246316A1, “METHODS OF TREATING POST-SURGICAL PAIN WITH A THIAZOLINE ANTI-HYPERALGESIC AGENT” (CERSCI THERAPEUTICS, INC., priority 2019, published 2020).
Several values for one entry are separate records, joined by “and”; a condition that tells them apart may be missing. Equal values may be shown once. Entries after “also recorded” stand apart in the source; their conditions may differ. Where a name gives a salt, the structure may show the parent alone.

Tests used:
[1] = Rat pharmacokinetics after single PO dose; details: for Compound 1 Concentration in rat plasma: 100 mg/kg single PO, individual animals
Experimental: In both assays, a deuterated (Compound 1-d4) internal standard was used.
The objective of this non-GLP study was to determine the pharmacokinetics of Compound 1 after a single oral (gavage) dose in rats, and to determine if Compound 1 undergoes epimerization in the rat. Compound 1 was administered to CD® IGS [Crl:CD(SD)] (Sprague Dawley) rats (5/sex/group) as a single oral gavage dose of 100 mg/kg in a vehicle of 0.5% aqueous HPMC. Rats were dosed at a dose volume of 10 mL/kg body weight.

[2] = Dog single dose study, IV 10 mg/kg and oral 10 and 100 mg/kg; format: in vivo; details: for peak plasma concentration: fasted
Experimental: In another study, Compound 1 was administered IV as a single dose to fasted beagle dogs at 10 mg/kg and orally at 10 and 100 mg/kg. Compound 1 was rapidly and well absorbed orally, within 1 hr, reaching peak plasma concentrations of 15 and 108 μg/mL at 10 and 100 mg/kg doses, respectively. The compound distributed readily in tissues with a moderate steady-state volume of distribution (0.3 L/kg).

P-gp = target: T1, P-gp (Homo sapiens, UniProt P08183); assay: Inhibition of efflux (ABC) transporters; format: in vitro ADME
T1 construct: Caco-2 cells; endogenous in cells; host or cells: Caco-2 cells
T1 sequence (P08183 whole entry): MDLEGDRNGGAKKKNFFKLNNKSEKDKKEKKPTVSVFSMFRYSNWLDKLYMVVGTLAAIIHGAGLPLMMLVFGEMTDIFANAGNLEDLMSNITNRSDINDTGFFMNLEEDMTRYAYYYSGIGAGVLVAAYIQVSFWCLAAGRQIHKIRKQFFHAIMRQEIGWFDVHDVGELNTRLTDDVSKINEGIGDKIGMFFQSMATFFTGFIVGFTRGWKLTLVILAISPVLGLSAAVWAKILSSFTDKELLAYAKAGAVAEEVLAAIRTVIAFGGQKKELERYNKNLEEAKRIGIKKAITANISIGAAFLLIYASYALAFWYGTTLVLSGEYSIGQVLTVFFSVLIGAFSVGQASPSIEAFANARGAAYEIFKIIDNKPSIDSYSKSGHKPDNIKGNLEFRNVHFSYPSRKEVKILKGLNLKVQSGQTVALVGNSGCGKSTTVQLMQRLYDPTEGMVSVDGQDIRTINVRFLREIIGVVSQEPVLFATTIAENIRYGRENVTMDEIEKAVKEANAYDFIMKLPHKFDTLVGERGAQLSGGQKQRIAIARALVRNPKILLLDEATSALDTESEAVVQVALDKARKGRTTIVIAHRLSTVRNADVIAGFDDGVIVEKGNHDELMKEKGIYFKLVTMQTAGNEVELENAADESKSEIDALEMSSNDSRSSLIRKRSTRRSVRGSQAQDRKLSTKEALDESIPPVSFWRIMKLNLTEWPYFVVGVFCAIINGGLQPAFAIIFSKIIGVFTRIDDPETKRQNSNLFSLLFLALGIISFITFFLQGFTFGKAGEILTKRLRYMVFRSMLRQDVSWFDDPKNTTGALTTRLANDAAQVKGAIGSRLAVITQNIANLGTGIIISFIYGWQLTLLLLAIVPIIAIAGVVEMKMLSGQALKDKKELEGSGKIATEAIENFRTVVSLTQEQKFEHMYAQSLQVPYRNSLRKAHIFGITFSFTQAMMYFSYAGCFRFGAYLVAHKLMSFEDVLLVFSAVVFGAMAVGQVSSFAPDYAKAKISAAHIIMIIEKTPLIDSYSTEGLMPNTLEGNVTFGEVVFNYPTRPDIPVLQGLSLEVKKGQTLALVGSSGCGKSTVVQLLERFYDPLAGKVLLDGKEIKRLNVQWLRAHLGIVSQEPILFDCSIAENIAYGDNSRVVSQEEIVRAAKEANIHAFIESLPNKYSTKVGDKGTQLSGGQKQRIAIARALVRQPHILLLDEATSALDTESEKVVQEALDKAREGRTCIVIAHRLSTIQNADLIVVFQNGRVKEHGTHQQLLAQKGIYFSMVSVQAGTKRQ

OATP1B1 = target: T2, OATP1B1 (Homo sapiens, UniProt Q9Y6L6); assay: Inhibition of uptake (SLC) transporters; format: in vitro ADME
T2 construct: expressed in transfected cells; host or cells: HEK293 cells
T2 sequence (Q9Y6L6 whole entry): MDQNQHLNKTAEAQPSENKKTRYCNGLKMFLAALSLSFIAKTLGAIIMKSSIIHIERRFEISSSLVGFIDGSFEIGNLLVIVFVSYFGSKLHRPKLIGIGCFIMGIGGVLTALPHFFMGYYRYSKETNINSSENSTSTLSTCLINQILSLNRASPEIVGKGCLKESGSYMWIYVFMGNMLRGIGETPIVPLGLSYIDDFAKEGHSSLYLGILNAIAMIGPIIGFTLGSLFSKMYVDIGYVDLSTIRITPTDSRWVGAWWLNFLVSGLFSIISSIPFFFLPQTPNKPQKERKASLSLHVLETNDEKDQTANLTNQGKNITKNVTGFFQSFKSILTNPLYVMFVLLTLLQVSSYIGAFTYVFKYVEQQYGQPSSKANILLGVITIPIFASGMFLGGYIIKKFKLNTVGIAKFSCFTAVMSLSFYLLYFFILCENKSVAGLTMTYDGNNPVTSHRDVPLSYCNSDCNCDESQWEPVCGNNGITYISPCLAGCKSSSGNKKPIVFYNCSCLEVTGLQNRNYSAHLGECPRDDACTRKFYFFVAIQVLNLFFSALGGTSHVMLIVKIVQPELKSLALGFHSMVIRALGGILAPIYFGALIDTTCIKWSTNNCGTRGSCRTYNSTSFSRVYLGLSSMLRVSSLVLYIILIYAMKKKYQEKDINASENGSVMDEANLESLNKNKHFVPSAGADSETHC

[3] = test system: established incision-induced mechanical hyperalgesia; assay: Brennan incisional pain model, treatment paradigm; format: in vivo, rat
From the text: Two incisional pain models were used to assess Compound 1 effects on hyperalgesia. The first model is referred to as the Brennan model in which, under anesthesia, a 1 cm longitudinal incision to the skin and underlying fascia of a rat hindpaw is made. The second is a variation but is a more invasive procedure in which the skin and muscle are spread apart using forceps which creates a longer-lasting hypersensitivity.
Using the Brennan protocol and a treatment paradigm in rat, Compound 1 (10 and 30 mg/kg PO), morphine (3 mg/kg SC) or vehicle were administered daily at 24 h post-incision, and again at 48 and 72 h post-incision. Mechanical thresholds were obtained at 1 h and 2 h post-dose in all cohorts on all days.

BCRP = BCRP (Homo sapiens, UniProt Q9UNQ0); assay: Inhibition of efflux (ABC) transporters
Sequence of BCRP (Q9UNQ0 whole entry): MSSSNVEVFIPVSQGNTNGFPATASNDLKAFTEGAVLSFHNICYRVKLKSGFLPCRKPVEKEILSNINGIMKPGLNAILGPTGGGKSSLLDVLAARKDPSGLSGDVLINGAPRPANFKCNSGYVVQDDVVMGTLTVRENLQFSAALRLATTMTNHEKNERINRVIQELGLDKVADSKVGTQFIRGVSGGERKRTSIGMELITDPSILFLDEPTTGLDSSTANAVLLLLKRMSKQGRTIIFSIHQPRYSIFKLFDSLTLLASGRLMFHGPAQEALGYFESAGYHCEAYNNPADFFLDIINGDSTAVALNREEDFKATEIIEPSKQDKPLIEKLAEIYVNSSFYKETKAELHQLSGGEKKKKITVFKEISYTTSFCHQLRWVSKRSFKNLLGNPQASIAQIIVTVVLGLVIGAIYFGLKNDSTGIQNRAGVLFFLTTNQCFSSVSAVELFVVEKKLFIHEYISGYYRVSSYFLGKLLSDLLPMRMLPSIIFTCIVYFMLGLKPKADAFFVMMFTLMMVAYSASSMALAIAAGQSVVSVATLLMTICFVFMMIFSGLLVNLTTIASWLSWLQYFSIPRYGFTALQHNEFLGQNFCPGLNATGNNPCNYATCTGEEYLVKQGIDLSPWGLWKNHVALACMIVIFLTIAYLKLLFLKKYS

[4] = Dog 7-day repeat dose PO study; format: in vivo; details: plasma, N = 1
Experimental: The objective was to develop a preliminary toxicity profile of Compound 1 following daily oral (gavage) administration for 7 days to male and female dogs to support dose selection for a 28-day toxicity study in dogs. Doses were selected based on the results of the MTD phase. Dose levels were 0 (Vehicle Control), 200, 350 and 400 mg/kg (1 dog/sex/group). The vehicle was 0.5% aqueous HPMC.
The animals used in this study were returned to the holding colony

[5] = Dose formulation stability (HPLC/UV); format: physicochemical
Experimental: Dose formulation analysis for all good laboratory practice (GLP) general toxicology studies was performed using a validated high-performance liquid chromatography (HPLC)/ultraviolet (UV) analytical method (2750-001-001 Dose Formulation Method 1). The vehicle used in the in vivo toxicology studies was 0.5% HPMC). The analytical method utilized HPLC with monitoring at 227 nm with an isocratic mobile phase of methanol with the column temperature set to 25° C. Linearity over a range of 1.0 to 200 mg/mL was observed. Dose formulations over this range were stable at room temperature for up to 13 days and were stable when stored frozen at −20° C. for up to 85 days.
In addition, formulation analysis for in vitro genetic toxicology studies was performed using a validated HPLC/UV analytical method (2750-001-001 Dose Formulation Method No. 2) with linearity over a range of 0.001 to 50 mg/mL. Dose formulations for in vitro assays were stable at room temperature for up to 1 day and when stored frozen at −20° C. for up to 45 days.

[6] = female, Sprague Dawley (CD IGS, Crl:CD(SD)), rat, plasma, po, 100 mg/kg
[7] = male, Sprague Dawley, rat, plasma, po, 100 mg/kg
[8] = female, 200 mg/kg, Day 1, 200 mg/kg PO, F
[9] = female, 200 mg/kg, Day 7, 200 mg/kg PO, F
[10] = female, 350 mg/kg, Day 1, 350 mg/kg PO, F
[11] = female, 350 mg/kg, Day 7, 350 mg/kg PO, F
[12] = female, 400 mg/kg, Day 1, 400 mg/kg PO, F
[13] = female, 400 mg/kg, Day 7, 400 mg/kg PO, F
[14] = male, 200 mg/kg, Day 1, 200 mg/kg PO, M
[15] = male, 200 mg/kg, Day 7, 200 mg/kg PO, M
[16] = male, 350 mg/kg, Day 1, 350 mg/kg PO, M
[17] = male, 350 mg/kg, Day 7, 350 mg/kg PO, M
[18] = male, 400 mg/kg, Day 1, 400 mg/kg PO, M
[19] = male, 400 mg/kg, Day 7, 400 mg/kg PO, M

CC1(C)SC(Nc2ccccc2O)=N[C@@H]1C(=O)O [Compound 1, (R)-2-(2-hydroxyphenylamino)-5,5-dimethyl-4,5-dihydrothiazole-4-carboxylic acid mono-hydrochloride]
Compound 1 Concentration in rat plasma ([1]; Female, 0.5 h post-dose, mono-hydrochloride, 100 mg/kg): 36.4 µg/mL and 44.7 µg/mL and 43.2 µg/mL and 45.4 µg/mL
Compound 1 Concentration in rat plasma ([1]; Female, 1 h post-dose, mono-hydrochloride, 100 mg/kg): 50.1 µg/mL and 63.6 µg/mL and 63.2 µg/mL and 69.7 µg/mL
Compound 1 Concentration in rat plasma ([1]; Female, 2 h post-dose, mono-hydrochloride, 100 mg/kg): 63.1 µg/mL and 58.9 µg/mL and 60.1 µg/mL and 72.8 µg/mL
Compound 1 Concentration in rat plasma ([1]; Female, 4 h post-dose, mono-hydrochloride, 100 mg/kg): 14.4 μg/mL (2×) and 31.5 μg/mL and 32.4 μg/mL and 20.4 μg/mL
Compound 1 Concentration in rat plasma ([1]; Female, 8 h post-dose, mono-hydrochloride, 100 mg/kg): 1.78 µg/mL and 1.80 µg/mL and 4.14 µg/mL and 4.21 µg/mL and 2.23 µg/mL
Compound 1 Concentration in rat plasma ([1]; Female, 24 h post-dose, mono-hydrochloride, 100 mg/kg): 0.250 µg/mL and 0.240 µg/mL and 0.489 µg/mL and 0.482 µg/mL and 0.428 µg/mL
Compound 1 Concentration in rat plasma ([1]; Male, 0.5 h post-dose, mono-hydrochloride, 100 mg/kg): 17.5 µg/mL and 14.0 µg/mL and 11.4 µg/mL and 10.8 µg/mL
Compound 1 Concentration in rat plasma ([1]; Male, 1 h post-dose, mono-hydrochloride, 100 mg/kg): 14.3 µg/mL and 22.6 µg/mL and 14.8 µg/mL and 11.0 µg/mL and 11.8 µg/mL
Compound 1 Concentration in rat plasma ([1]; Male, 2 h post-dose, mono-hydrochloride, 100 mg/kg): 15.7 µg/mL and 14.0 µg/mL and 14.9 µg/mL and 10.7 µg/mL
Compound 1 Concentration in rat plasma ([1]; Male, 4 h post-dose, mono-hydrochloride, 100 mg/kg): 4.82 µg/mL and 13.9 µg/mL and 1.56 µg/mL and 6.65 µg/mL and 3.81 µg/mL
Compound 1 Concentration in rat plasma ([1]; Male, 8 h post-dose, mono-hydrochloride, 100 mg/kg): 2.81 µg/mL and 1.57 µg/mL and 1.53 µg/mL and 3.05 µg/mL
Compound 1 Concentration in rat plasma ([1]; Male, 24 h post-dose, mono-hydrochloride, 100 mg/kg): 0.157 μg/mL and BQL (3×) and 1.04 μg/mL
concentration at 0.5 h [1, 6]: 40.8 µg/mL
concentration at 2 h [1, 6]: 62.6 µg/mL
concentration at 8 h [1, 6]: 2.83 µg/mL
concentration at 24 h [1, 6]: 0.378 µg/mL
concentration at 0.5 h [1, 7]: 13.5 µg/mL
concentration at 4 h [1, 7]: 6.15 µg/mL
concentration at 8 h [1, 7]: 2.11 µg/mL
concentration at 24 h [1, 7]: 0.599 µg/mL
epimerization in vivo (chiral methods) ([1]; rat plasma, mono-hydrochloride): no epimerization; also recorded: did not provide any evidence of epimerization
peak plasma concentration ([2]; 10 mg/kg oral): 15 µg/mL
peak plasma concentration ([2]; 100 mg/kg oral): 108 µg/mL
bioavailability ([2]; beagle, dog, plasma, po, both 10 and 100 mg/kg doses): 75%
time to peak plasma concentration ([2]; oral, fasted beagle dogs): ≤ 1 h
IC50 (P-gp; Caco-2 cells, probe substrate digoxin (10 μM), bidirectional transport, 1-600 μM tested): > 600 µM
transporter inhibition (P-gp; P-gp): does not inhibit
IC50 (OATP1B1; HEK293 cells, probe [3H]-estradiol-17β-glucuronide (0.05 μM), 0.3-600 μM tested): > 600 µM
transporter inhibition (OATP1B1; OATP1B1): does not inhibit
effect on established mechanical hyperalgesia (overall) ([3]; Compound 1 10 and 30 mg/kg PO daily, morphine 3 mg/kg SC, FIG. 12, mono-hydrochloride): prevented/reversed hyperalgesia completely; also recorded: reversed mechanical hyperalgesia
reversal of hyperalgesia ([3]; Day 1, 2-h time point, low-dose (10 mg/kg PO)): partial reversal
mechanical threshold ([3]; Day 1, 1 h post-dose, high-dose (30 mg/kg PO)): 26 g
mechanical threshold ([3]; Day 1, 2 h post-dose, high-dose (30 mg/kg PO)): 27 g
reversal of hyperalgesia ([3]; Day 2, 1 h and 2 h post-dosing, both 10 and 30 mg/kg PO cohorts): full reversal of hyperalgesia
mechanical threshold ([3]; Day 2 prior to dosing, high-dose (30 mg/kg PO)): 29 g
mechanical threshold ([3]; Day 2 prior to dosing, low-dose (10 mg/kg PO)): 26 g
hyperalgesia ([3]; Day 3 prior to dosing): did not show hyperalgesia
IC50 (BCRP): > 30 µM
transporter inhibition (BCRP; BCRP): modestly inhibits
AUC(0-t) [4, 8]: 582 µg·h/mL
Cmax [4, 8]: 152 µg/mL
half-life [4, 8]: 1.3 h
AUC(0-t) [4, 9]: 411 µg·h/mL
Cmax [4, 9]: 103 µg/mL
half-life [4, 9]: 1.5 h
AUC(0-t) [4, 10]: 834 µg·h/mL
Cmax [4, 10]: 228 µg/mL
half-life [4, 10]: 1.2 h
AUC(0-t) [4, 11]: 738 µg·h/mL
Cmax [4, 11]: 207 µg/mL
Tmax [4, 11]: 0.5 h
half-life [4, 11]: 2.4 h
AUC(0-t) [4, 12]: 464 µg·h/mL
Cmax [4, 12]: 109 µg/mL
Tmax [4, 12]: 1 h
AUC(0-t) [4, 13]: 751 µg·h/mL
Cmax [4, 13]: 183 µg/mL
half-life [4, 13]: 2.5 h
AUC(0-t) [4, 14]: 538 µg·h/mL
Cmax [4, 14]: 150 µg/mL
half-life [4, 14]: 1.1 h
AUC(0-t) [4, 15]: 540 µg·h/mL
Tmax [4, 15]: 1 h
half-life [4, 15]: 1.4 h
AUC(0-t) [4, 16]: 613 µg·h/mL
Cmax [4, 16]: 176 µg/mL
half-life [4, 16]: 1.1 h
AUC(0-t) [4, 17]: 591 µg·h/mL
Cmax [4, 17]: 184 µg/mL
Tmax [4, 17]: 1 h
half-life [4, 17]: 1.2 h
AUC(0-t) [4, 18]: 657 µg·h/mL
Cmax [4, 18]: 167 µg/mL
half-life [4, 18]: 1.2 h
AUC(0-t) [4, 19]: 210 µg·h/mL
Cmax [4, 19]: 69 µg/mL
Tmax [4, 19]: 1 h
half-life [4, 19]: 1.3 h
dose formulation stability ([5]; 0.5% HPMC, 1.0 to 200 mg/mL, room temperature): up to 13 days
dose formulation stability ([5]; 0.5% HPMC, 1.0 to 200 mg/mL, stored frozen at −20° C.): up to 85 days
dose formulation stability ([5]; formulations for in vitro assays, 0.001 to 50 mg/mL, room temperature): up to 1 day
dose formulation stability ([5]; formulations for in vitro assays, 0.001 to 50 mg/mL, stored frozen at −20° C.): up to 45 days
